Here are results for 24 compounds from US20150352108A1, “AMINO-PYRIMIDINE COMPOUNDS AS INHIBITORS OF TBK1 AND/OR IKK EPSILON” (Alzheimer's Institute of America, priority 2009, published 2015).

Each structure is given as a SMILES string.

Experiment [1] concerns the target T1, TBK1 (Homo sapiens, UniProt Q9UHD2).
T1 construct: His-tag; made in house; host or cells: Sf9 insect cells
T1 sequence (Q9UHD2 1-729): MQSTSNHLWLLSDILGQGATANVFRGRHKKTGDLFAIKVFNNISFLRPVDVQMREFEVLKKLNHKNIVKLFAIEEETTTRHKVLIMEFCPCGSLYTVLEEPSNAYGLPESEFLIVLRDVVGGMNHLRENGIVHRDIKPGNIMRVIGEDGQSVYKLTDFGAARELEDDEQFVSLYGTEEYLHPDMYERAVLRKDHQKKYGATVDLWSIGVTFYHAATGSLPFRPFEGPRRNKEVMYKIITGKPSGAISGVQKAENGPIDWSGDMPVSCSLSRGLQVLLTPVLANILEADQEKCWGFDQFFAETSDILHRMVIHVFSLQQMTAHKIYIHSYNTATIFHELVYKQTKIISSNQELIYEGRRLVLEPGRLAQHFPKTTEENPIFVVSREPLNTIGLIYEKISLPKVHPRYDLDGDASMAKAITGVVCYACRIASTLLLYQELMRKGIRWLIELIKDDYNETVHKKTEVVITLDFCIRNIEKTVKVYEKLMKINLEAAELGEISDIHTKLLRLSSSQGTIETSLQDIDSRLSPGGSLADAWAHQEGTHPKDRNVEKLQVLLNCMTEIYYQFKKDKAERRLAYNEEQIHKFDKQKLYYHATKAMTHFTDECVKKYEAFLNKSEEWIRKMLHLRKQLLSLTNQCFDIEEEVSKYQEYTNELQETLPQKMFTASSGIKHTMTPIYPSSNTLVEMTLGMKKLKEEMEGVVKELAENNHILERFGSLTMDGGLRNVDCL
The experiment can be described thus: In-vitro TBK1 kinase assay ([γ33]ATP filter-plate). It counts as biochemical. Particulars: text bins; read-out: IC50 for inhibition of the kinase activity of TBK1. In short, it runs like this: (§1)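 His-tagged IKKε and TBK1 from Sf9 cells were assayed with myelin basic protein or casein and [γ33]ATP at 2×Km ATP (32 μM for IKKε, 60 μM for TBK1). Enzyme was 0.1 or 0.015 μg/ml for IKKε and 0.1 or 0.02 μg/ml for TBK1 (normal/sensitized). Reactions ran 30-45 min, were filter-captured, scintillation-counted, and normalized to DMSO after background subtraction.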

Experiment [2] has as its target T2, IKKε (Homo sapiens, UniProt Q14164).
T2 construct: His-tag; made in house; host or cells: Sf9 insect cells
T2 sequence (Q14164 1-716): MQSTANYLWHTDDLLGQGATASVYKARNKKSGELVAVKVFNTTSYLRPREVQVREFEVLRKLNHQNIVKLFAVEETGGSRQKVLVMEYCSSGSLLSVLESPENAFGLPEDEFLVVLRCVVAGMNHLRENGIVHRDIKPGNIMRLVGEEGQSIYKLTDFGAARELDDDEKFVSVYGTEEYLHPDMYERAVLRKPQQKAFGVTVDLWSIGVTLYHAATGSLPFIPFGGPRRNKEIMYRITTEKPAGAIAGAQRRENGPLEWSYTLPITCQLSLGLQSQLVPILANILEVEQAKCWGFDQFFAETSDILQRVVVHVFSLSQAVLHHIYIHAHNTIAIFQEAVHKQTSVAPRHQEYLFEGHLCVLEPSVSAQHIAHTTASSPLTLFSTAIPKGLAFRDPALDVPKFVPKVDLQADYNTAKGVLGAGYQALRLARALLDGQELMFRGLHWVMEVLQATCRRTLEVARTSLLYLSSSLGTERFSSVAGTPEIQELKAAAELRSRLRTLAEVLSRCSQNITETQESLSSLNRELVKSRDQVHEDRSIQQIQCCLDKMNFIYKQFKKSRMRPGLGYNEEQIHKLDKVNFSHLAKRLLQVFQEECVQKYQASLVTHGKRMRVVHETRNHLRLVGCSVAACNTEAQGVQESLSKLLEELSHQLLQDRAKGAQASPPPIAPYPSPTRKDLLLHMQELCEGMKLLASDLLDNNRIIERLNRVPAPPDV
Kind of experiment: In-vitro IKKε kinase assay ([γ33]ATP filter-plate). In kind it is biochemical. Particulars: text bins; read-out: IC50 for inhibition of the kinase activity of IKKε. In short, it runs like this:
as §1

As a reminder, the IC50 is the concentration that gives 50% inhibition. Consider `COc1ccc(-c2ccnc(Nc3cccc(S(N)(=O)=O)c3)n2)cc1C#N` [compound 346, 3-{[4-(3-Cyano-4-methoxyphenyl)pyrimidin-2-yl]amino} benzenesulfonamide], for which the concentration for half-maximal inhibition (IC50) in experiment [1] fell in the range of 0.01 to 0.1 µM; in experiment [2], 0.005 to 0.05 µM.

Regarding `COc1cc(Nc2nccc(-c3cccc(C#N)c3)n2)cc(OC)c1` [compound 347, 3-{2-[(3,5-Dimethoxyphenyl)amino]pyrimidin-4-yl}benzonitrile], the IC50 was in the range of 0.1 to 0.5 µM in experiment [1] and 0.05 to 0.5 µM in experiment [2].

As for `COc1cc(NC(=O)N2CCCC(O)C2)cc(Nc2nccc(-c3ccc(OC)c(C#N)c3)n2)c1` (stereo not drawn) [compound 353, N-(3-{[4-(3-Cyano-4-methoxyphenyl)pyrimidin-2-yl]amino}-5-methoxyphenyl)-3-hydroxypiperidine-1-carboxamide], the half-inhibitory concentration (IC50) fell in the range of 0.01 to 0.1 µM in experiment [1] and 0.005 to 0.05 µM in experiment [2].

On to `COc1cc(NC(=O)c2cccnc2)cc(Nc2nccc(-c3ccc(OC)c(C#N)c3)n2)c1` [compound 356, N-(3-{[4-(3-Cyano-4-methoxyphenyl)pyrimidin-2-yl]amino}-5-methoxyphenyl) pyridine-3-carboxamide], for which the results for the IC50 in experiment [1] and in experiment [2] were 0.01 to 0.1 µM and 0.005 to 0.05 µM, respectively.

As to `COc1cc(N)cc(Nc2nccc(-c3ccc(OC)c(C#N)c3)n2)c1` [compound 358, 5-{2-[(3-Amino-5-methoxyphenyl)amino]pyrimidin-4-yl}-2-methoxybenzonitrile], the IC50 in experiment [1] fell in the range of 0.01 to 0.1 µM; in experiment [2] it was 0.005 to 0.05 µM.

Consider `COc1cc(NC(=O)NC[C@H](C)O)cc(Nc2nccc(-c3ccc(OC)c(C#N)c3)n2)c1` [compound 359, 1-(3-{[4-(3-Cyano-4-methoxyphenyl)pyrimidin-2-yl]amino}-5-methoxyphenyl)-3-[(2S)-2-hydroxypropyl]urea], for which the IC50 in experiment [1] is 0.01 to 0.1 µM; in experiment [2], 0.005 to 0.05 µM.

For the compound `COc1ccc(-c2ccnc(Nc3ccc(NC(C)=O)cc3)n2)cc1C#N` [compound 361, N-(4-{[4-(3-Cyano-4-methoxyphenyl)pyrimidin-2-yl]amino}phenyl) acetamide], the IC50 was in the range of 0.01 to 0.1 µM in experiment [1] and 0.005 to 0.05 µM in experiment [2].

Take `N#Cc1cc(-c2ccnc(Nc3ccc(S(=O)(=O)N4CCOCC4)cc3)n2)ccc1OC1CCOCC1` [compound 363, 5-(2-{[4-(morpholin-4-ylsulfonyl)phenyl]amino}pyrimidin-4-yl)-2-(tetrahydro-2H-pyran-4-yloxy)benzonitrile]: the half-maximal inhibitory concentration (IC50) in experiment [1] was below 0.01 µM; in experiment [2], 0.005 to 0.05 µM.

For `COc1ccc(-c2ccnc(Nc3ccc(S(=O)(=O)NCCN)c(OC)c3)n2)cc1C#N` [compound 366, N-(2-Aminoethyl)-4-{[4-(3-cyano-4-methoxyphenyl)pyrimidin-2-yl]amino}-2-methoxybenzene-sulfonamide], the IC50 in experiment [1] was 0.01 to 0.1 µM; in experiment [2], 0.005 to 0.05 µM.

Consider `C[C@H](O)C(=O)N1CCC(Oc2ccc(-c3ccnc(Nc4ccc(C(=O)NCCN(C)C)cc4)n3)cc2C#N)CC1` [compound 367, 4-({4-[3-cyano-4-({1-[(2S)-2-hydroxypropanoyl]piperidin-4-yl}oxy)phenyl]pyrimidin-2-yl}amino)-N-[2-(dimethylamino)ethyl]benzamide], for which the values for the IC50 in experiment [1] and in experiment [2] were below 0.01 µM and below 0.005 µM, respectively.

Take `COc1ccc(-c2ccnc(Nc3ccc(OC)c(OCCN4CCOCC4)c3)n2)cc1C#N` [compound 368, 2-Methoxy-5-[2-({4-methoxy-3-[2-(morpholin-4-yl)ethoxy]phenyl}amino)pyrimidin-4-yl]benzonitrile]: the IC50 in experiment [1] lay within 0.01 to 0.1 µM; in experiment [2], 0.005 to 0.05 µM.

On to `COc1ccc(-c2ccnc(Nc3ccc(N4CCNC(=O)C4)c(OC)c3)n2)cc1C#N` [compound 370, 2-Methoxy-5-(2-{[3-methoxy-4-(3-oxopiperazin-1-yl)phenyl]amino}pyrimidin-4-yl)benzonitrile], for which the IC50 was below 0.01 µM in experiment [1] and below 0.005 µM in experiment [2].

As for `COc1ccc(-c2ccnc(Nc3cccc(NC(=O)N4CC[C@@H](O)C4)c3)n2)cc1C#N` [compound 372, (3R)-N-(3-{[4-(3-Cyano-4-methoxyphenyl)pyrimidin-2-yl]amino}phenyl)-3-hydroxypyrrolidine-1-carboxamide], the IC50 lay in the range of 0.01 to 0.1 µM in experiment [1] and 0.005 to 0.05 µM in experiment [2].

As to `N#Cc1cccc(-c2ccnc(Nc3cccc(S(N)(=O)=O)c3)n2)c1` [compound 373], the concentration for half-maximal inhibition (IC50) in experiment [1] is 0.01 to 0.1 µM; in experiment [2], below 0.005 µM.

`N#Cc1cc(-c2ccnc(Nc3ccc(N4CCOCC4)c(Cl)c3)n2)ccc1OC1CCOCC1` [compound 374, 5-(2-{[3-chloro-4-(morpholin-4-yl)phenyl]amino}pyrimidin-4-yl)-2-(tetrahydro-2H-pyran-4-yloxy)benzonitrile]: the IC50 in experiment [1] is below 0.01 µM; in experiment [2], below 0.005 µM.

For the compound `COc1ccc(-c2ccnc(Nc3ccc(S(=O)(=O)NCCCN(C)C)c(OC)c3)n2)cc1C#N` [compound 375, 4-{[4-(3-Cyano-4-methoxyphenyl)pyrimidin-2-yl]amino}-N-[3-(dimethylamino)propyl]-2-methoxybenzene-sulfonamide], the values for the concentration for half-maximal inhibition (IC50) in experiment [1] and in experiment [2] were 0.01 to 0.1 µM and 0.005 to 0.05 µM, respectively.

On to `COc1cc(Nc2nccc(-c3ccc(OC4CCN(C(=O)[C@H](C)O)CC4)c(C#N)c3)n2)ccc1C(=O)NCCCN(C)C` [compound 376, 4-({4-[3-cyano-4-({1-[(2S)-2-hydroxypropanoyl]piperidin-4-yl}oxy)phenyl]pyrimidin-2-yl}amino)-N-[3-(dimethylamino)propyl]-2-methoxybenzamide], for which the IC50 was below 0.01 µM in experiment [1] and below 0.005 µM in experiment [2].

In the case of `COc1cc(NC(=O)N2CC[C@@H](O)C2)cc(Nc2nccc(-c3ccc(OC)c(C#N)c3)n2)c1` [compound 378, (3R)-N-(3-{[4-(3-Cyano-4-methoxyphenyl)pyrimidin-2-yl]amino}-5-methoxyphenyl)-3-hydroxypyrrolidine-1-carboxamide], the IC50 in experiment [1] was in the range of 0.01 to 0.1 µM; in experiment [2], 0.005 to 0.05 µM.

On to `COc1cc(NC(=O)NCCO)cc(Nc2nccc(-c3ccc(OC4CCN(C(C)=O)CC4)c(C#N)c3)n2)c1` [compound 380], for which the figures for the IC50 in experiment [1] and in experiment [2] were 0.01 to 0.1 µM and 0.005 to 0.05 µM, respectively.

As to `COc1ccc(-c2ccnc(Nc3ccc(S(=O)(=O)NCCCN)c(OC)c3)n2)cc1C#N` [compound 383, N-(3-Aminopropyl)-4-{[4-(3-cyano-4-methoxyphenyl)pyrimidin-2-yl]amino}-2-methoxybenzene-sulfonamide], the values for the IC50 in experiment [1] and in experiment [2] were 0.01 to 0.1 µM and 0.005 to 0.05 µM, respectively.

As for `N#Cc1cccc(-c2ccnc(Nc3ccc4[nH]ncc4c3)n2)c1` [compound 387, 3-[2-(1H-Indazol-5-ylamino)pyrimidin-4-yl]benzonitrile], the IC50 fell in the range of 0.1 to 0.5 µM in experiment [1] and 0.005 to 0.05 µM in experiment [2].

On to `COc1cccc(Nc2nccc(-c3cccc(C#N)c3)n2)c1` [compound 389, 3-{2-[(3-Methoxyphenyl)amino]pyrimidin-4-yl}benzonitrile], for which the IC50 fell in the range of 0.1 to 0.5 µM in experiment [1] and 0.05 to 0.5 µM in experiment [2].

As to `COc1ccc(Nc2nc(-c3cccc(C#N)c3)c3nc[nH]c3n2)cc1OC` [compound 390, 3-{2-[(3,4-Dimethoxyphenyl)amino]-3H-purin-6-yl}benzonitrile], the IC50 in experiment [1] was in the range of 0.1 to 0.5 µM; in experiment [2], 0.05 to 0.5 µM.

Consider `COc1cc(Nc2nccc(-c3ccc(OC4CCOCC4)c(C#N)c3)n2)ccc1S(=O)(=O)N1CCCC1` [compound 394, 5-(2-{[3-methoxy-4-(pyrrolidin-1-ylsulfonyl)phenyl]amino}pyrimidin-4-yl)-2-(tetrahydro-2H-pyran-4-yloxy)benzonitrile], for which the figures for the IC50 in experiment [1] and in experiment [2] were below 0.01 µM and below 0.005 µM, respectively.
